# Calls of active or inactive are those of the source.
# Tests used:
# [1] = biological target: Voltage-gated potassium channel, KQT; KCNQ2(Kv7.2)/KCNQ3(Kv7.3) (Homo sapiens, UniProt O43525+O43526); assay: Agonist activity at human KCNQ2/3 transfected in human HEK293 cells incubated for 30 mins by fluorimetric assay; assay type: cell-based
# Rattus norvegicus [2] = assay: Antinociceptive activity against formalin-induced pain in male Sprague-Dawley rat assessed as reduction in nociceptive response at 40 mg/kg, IG pretreated for 5 mins followed by formalin challenge and measured for first 9 mins (phase I); assay type: functional, organism-based; settings: time 14.0 min
# Rattus norvegicus [3] = assay: Antinociceptive activity against formalin-induced pain in male Sprague-Dawley rat assessed as reduction in nociceptive response at 40 mg/kg, IG pretreated for 5 mins followed by formalin challenge and measured for 10 to 60 mins (phase II); assay type: functional, organism-based; settings: time 15-65 min
# Rattus norvegicus [4] = assay: Antiallodynic activity in spinal nerve ligation-induced neuropathic pain male Sprague-Dawley rat model assessed as mechanical withdrawal threshold at 40 mg/kg, IG pretreated with compound for 1 hr and measured on day 15 after surgery; assay type: functional, organism-based; settings: time 15.0 day
# Mus musculus = assay: Induction of motor coordination impairment in mouse at 20 mg/kg, IG measured upto 120 mins by rotarod method; assay type: functional, organism-based
# [5] = Hepatotoxicity in rat assessed as change in serum AST level at 10 to 40 mg/kg, IG administered for 28 days and measured after 14 days; assay type: toxicity, organism-based; settings: in vivo, po, 672 h, dose 10-40 mg/kg, time 28 day
# [6] = Hepatotoxicity in rat assessed as change in serum ALP level at 10 to 40 mg/kg, IG administered for 28 days and measured after 14 days; assay type: toxicity, organism-based; settings: in vivo, po, 672 h, dose 10-40 mg/kg, time 28 day
# [7] = Hepatotoxicity in rat assessed as change in serum total bilirubin (TBIL) level at 10 to 40 mg/kg, IG administered for 28 days and measured after 14 days; assay type: toxicity, organism-based; settings: in vivo, po, 672 h, dose 10-40 mg/kg, time 28 day
# [8] = Hepatotoxicity in rat assessed as increase in serum ALT level at 10 to 20 mg/kg, IG administered for 28 days and measured after 14 days relative to control; assay type: toxicity, organism-based; settings: in vivo, po, 672 h, dose 10-20 mg/kg, time 28 day
# [9] = Hepatotoxicity in rat assessed as increase in serum ALT level at 40 mg/kg, IG administered for 28 days and measured after 14 days; assay type: toxicity, organism-based; settings: in vivo, po, 672 h, time 28 day
# [10] = Hepatotoxicity in rat assessed as increase in serum TBIL level at 40 mg/kg, IG administered for 28 days and measured after 14 days; assay type: toxicity, organism-based; settings: in vivo, po, 672 h, time 28 day
# Sequence of Voltage-gated potassium channel, KQT; KCNQ2(Kv7.2)/KCNQ3(Kv7.3) (O43526 whole entry): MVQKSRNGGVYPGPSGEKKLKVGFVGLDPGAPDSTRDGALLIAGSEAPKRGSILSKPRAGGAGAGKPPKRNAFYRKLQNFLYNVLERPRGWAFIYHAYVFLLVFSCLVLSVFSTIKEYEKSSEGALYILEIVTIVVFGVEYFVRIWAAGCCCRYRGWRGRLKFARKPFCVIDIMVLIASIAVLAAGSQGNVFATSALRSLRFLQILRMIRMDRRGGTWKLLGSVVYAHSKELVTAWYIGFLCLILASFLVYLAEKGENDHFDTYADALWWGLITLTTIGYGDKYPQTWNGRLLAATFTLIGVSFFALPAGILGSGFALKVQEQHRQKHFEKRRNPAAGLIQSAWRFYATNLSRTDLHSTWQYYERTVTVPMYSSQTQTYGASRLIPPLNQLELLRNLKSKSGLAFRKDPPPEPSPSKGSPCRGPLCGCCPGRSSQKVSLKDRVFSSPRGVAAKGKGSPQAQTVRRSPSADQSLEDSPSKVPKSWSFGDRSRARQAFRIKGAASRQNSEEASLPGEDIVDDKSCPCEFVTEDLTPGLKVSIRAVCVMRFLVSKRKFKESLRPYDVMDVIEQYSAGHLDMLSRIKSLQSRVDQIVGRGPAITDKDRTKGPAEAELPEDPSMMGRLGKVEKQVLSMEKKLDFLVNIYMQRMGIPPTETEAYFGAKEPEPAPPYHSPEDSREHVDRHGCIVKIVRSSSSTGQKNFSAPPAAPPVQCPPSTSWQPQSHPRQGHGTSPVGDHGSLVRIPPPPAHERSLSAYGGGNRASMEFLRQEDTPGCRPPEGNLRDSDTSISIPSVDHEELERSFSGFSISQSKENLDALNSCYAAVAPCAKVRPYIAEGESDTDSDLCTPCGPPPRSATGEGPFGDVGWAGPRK
# Sequence of Voltage-gated potassium channel, KQT; KCNQ2(Kv7.2)/KCNQ3(Kv7.3) (O43525 whole entry): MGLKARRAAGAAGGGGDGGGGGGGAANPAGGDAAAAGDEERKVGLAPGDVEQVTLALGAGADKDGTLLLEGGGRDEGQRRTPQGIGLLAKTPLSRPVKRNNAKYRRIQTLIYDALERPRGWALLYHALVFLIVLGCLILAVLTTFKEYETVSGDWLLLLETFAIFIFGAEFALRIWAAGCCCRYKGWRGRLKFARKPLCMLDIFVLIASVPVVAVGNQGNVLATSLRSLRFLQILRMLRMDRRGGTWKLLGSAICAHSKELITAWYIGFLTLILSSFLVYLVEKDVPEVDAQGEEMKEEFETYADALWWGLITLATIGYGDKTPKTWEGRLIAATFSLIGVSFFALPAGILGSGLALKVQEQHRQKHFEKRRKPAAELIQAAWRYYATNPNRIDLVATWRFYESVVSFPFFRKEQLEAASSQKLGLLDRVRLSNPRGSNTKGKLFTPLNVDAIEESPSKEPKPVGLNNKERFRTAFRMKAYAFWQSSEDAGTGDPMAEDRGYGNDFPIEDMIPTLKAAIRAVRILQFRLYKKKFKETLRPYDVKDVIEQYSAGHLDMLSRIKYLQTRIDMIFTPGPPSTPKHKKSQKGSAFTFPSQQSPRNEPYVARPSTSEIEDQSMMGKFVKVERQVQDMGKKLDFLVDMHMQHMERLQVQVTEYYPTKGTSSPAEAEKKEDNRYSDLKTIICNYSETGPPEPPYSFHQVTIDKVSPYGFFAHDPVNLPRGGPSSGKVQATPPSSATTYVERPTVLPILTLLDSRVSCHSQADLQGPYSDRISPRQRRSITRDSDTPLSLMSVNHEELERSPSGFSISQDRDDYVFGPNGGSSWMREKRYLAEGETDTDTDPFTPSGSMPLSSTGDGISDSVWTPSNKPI
Structure (SMILES),EC50 [1] [µM],further results
CC(=O)Nc1nc(OCc2ccc(Cl)c(Cl)c2)ccc1N,10.1,–
CC(C)C(=O)Nc1nc(OCc2ccc(F)cc2)ccc1N,18.4,–
CC(=O)Nc1nc(OCc2ccc3c(c2)OCO3)ccc1N,128,–
Nc1ccc(OCc2ccc(F)cc2)nc1N1CCCC1=O,12.7,–
CC(C)C[C@H](CN)CC(=O)O,–,Activity (Rattus norvegicus [2]): inactive; Activity (Rattus norvegicus [3]): Active; Activity (Rattus norvegicus [4]): Active; Activity (Mus musculus): inactive
CCOC(=O)Nc1ccc(NCc2ccc(F)cc2)nc1N [FLUPIRTINE],1.9,Activity [5]: Non-toxic; Activity [6]: Non-toxic; Activity [7]: Non-toxic; Activity [8]: < 70%; Activity [9]: Toxic; Activity [10]: Toxic
CCOC(=O)Nc1ccc(OCc2ccc(F)cc2)nc1NC(C)=O,6.19,–
CC(=O)Nc1nc(OCc2ccncc2)ccc1N,35.3,–
CC(=O)Nc1cc(OCc2ccc(F)cc2)ccc1N,13.5,–
CC(=O)Nc1nc(OCc2ccc3ccccc3c2)ccc1N,189,–
CCC(=O)Nc1nc(OCc2ccc(F)cc2)ccc1N,13.9,–
Nc1ccc(OCc2ccc(F)cc2)nc1NC(=O)C1CCCCC1,164,–
CC(=O)Nc1ccc(OCc2ccc(F)cc2)nc1NC(C)=O,7.61,–

# — ChEMBL document CHEMBL6092178, “Discovery of a novel KV7.2/7.3 channels agonist for the treatment of neuropathic pain” (Eur J Med Chem, 2024)
